Entries after “also recorded” stand apart in the source; their conditions may differ.
What was measured:
[1] = test system: patient-derived xenograft models; parameters: method as in PMID 34543572; details: mouse, low doses; 9 of 19 models; cited from earlier work
[2] = test system: HEXIM1 mRNA; experiment: Change from baseline in gene expression, HEXIM1; assay type: in vivo, human; details: patients; by dose
Experimental: Summary changes from baseline in the expression of BET-regulated genes were assessed in tumor tissues and blood collected at baseline and multiple on-treatment time points after BMS-986158 administration following the 3 dosing schedules. The study also assessed summary percent changes from baseline in expression of BET-regulated genes in peripheral blood and tumors (such as HEXIM1 and C-MYC). Tissue and peripheral blood samples (at baseline and on treatment) were collected for genomic, transcriptomic, and epigenetic analyses (by DNA or mRNA) to assess pharmacodynamic changes in BET-regulated genes. These samples were analyzed using whole-exome sequencing, real-time quantitative polymerase chain reaction, and RNA-sequencing methods.
All treated patients with available biomarker measurements at baseline and ≥1 time point were included in the biomarker analyses. Blood and tumor tissue samples were collected at baseline, during treatment, and at end of treatment for biomarker analysis. Markers of selected BET-regulated genes (e.g., HEXIM1) were analyzed with summary statistics for percent changes in expression from available matched pre- and on-treatment samples over time relative to baseline. Statistically significant changes in gene expression were determined using the Benjamini–Hochberg procedure to calculate an adjusted p value with an α level of 0.05.

Structure (SMILES): Cc1nnn(C)c1-c1cnc2c3ccc(C(C)(C)O)cc3n([C@H](c3ccccc3)C3CCOCC3)c2c1 [BMS-986158]
- Patient-derived xenograft models with antitumor activity [1]: 47%
- HEXIM1 mRNA expression change from baseline [2]: dose dependently upregulated; also recorded: transcriptional activation

— publication PMC9454848, “BMS-986158, a Small Molecule Inhibitor of the Bromodomain and Extraterminal Domain Proteins, in Patients with Selected Advanced Solid Tumors: Results from a Phase 1/2a Trial” (Cancers, 2022)
